# According to ChEMBL document CHEMBL1255415, “In vitro activity of penem-1 in combination with beta-lactams against blaKPC-possessing Klebsiella pneumoniae isolates” (2010):
# Activity calls are given as the source filed them. The calls are words filed in the database; no cut-off is given here.
# Assays:
# Klebsiella pneumoniae [1] = test: Antimicrobial activity against blaKPC-possessing Klebsiella pneumoniae isolates by agar dilution method; format: functional
# Klebsiella pneumoniae [2] = test: Antimicrobial activity against blaKPC-possessing Klebsiella pneumoniae isolates in presence of 4 ug/ml by agar dilution method; format: functional
# Klebsiella pneumoniae [3] = test: Antimicrobial activity against blaKPC-possessing Klebsiella pneumoniae isolates assessed as susceptible isolates by agar dilution method; format: functional
# Klebsiella pneumoniae [4] = test: Antimicrobial activity against blaKPC-possessing Klebsiella pneumoniae isolates assessed as susceptible isolates in presence of 4 ug/ml by agar dilution method; format: functional
# Klebsiella pneumoniae [5] = test: Inhibition of Beta-lactamase KPC-2 in Klebsiella pneumoniae isolates assessed as reduction in antimicrobial MIC of beta-lactams by agar dilution method relative to untreated control
structure (smiles),measurement,setting,value
C[C@H]1[C@H](NC(=O)/C(=N\OC(C)(C)C(=O)O)c2csc(N)n2)C(=O)N1S(=O)(=O)O [AZTREONAM],MIC50,Klebsiella pneumoniae [1],≥ 512 µg/mL
same,MIC90,Klebsiella pneumoniae [1],≥ 512 µg/mL
same,MIC50,Klebsiella pneumoniae [2],16 µg/mL
same,MIC90,Klebsiella pneumoniae [2],128 µg/mL
same,Activity,Klebsiella pneumoniae [3],0%
same,Activity,Klebsiella pneumoniae [4],14.3%
same,inhibition,Klebsiella pneumoniae [5],Active
CO/N=C(\C(=O)N[C@@H]1C(=O)N2C(C(=O)[O-])=C(C[N+]3(C)CCCC3)CS[C@H]12)c1csc(N)n1 [CEFEPIME],MIC50,Klebsiella pneumoniae [1],32 µg/mL
same,MIC90,Klebsiella pneumoniae [1],128 µg/mL
same,MIC50,Klebsiella pneumoniae [2],2 µg/mL
same,MIC90,Klebsiella pneumoniae [2],16 µg/mL
same,Activity,Klebsiella pneumoniae [3],7.1%
same,Activity,Klebsiella pneumoniae [4],88.1%
same,Reduction in beta-lactam MIC (qualitative call),Klebsiella pneumoniae [5],Active
CO/N=C(\C(=O)N[C@@H]1C(=O)N2C(C(=O)O)=C(COC(C)=O)CS[C@H]12)c1csc(N)n1 [CEFOTAXIME],MIC50,Klebsiella pneumoniae [1],64 µg/mL
same,MIC90,Klebsiella pneumoniae [1],≥ 512 µg/mL
same,MIC50,Klebsiella pneumoniae [2],2 µg/mL
same,MIC90,Klebsiella pneumoniae [2],4 µg/mL
same,Activity,Klebsiella pneumoniae [3],0%
same,Activity,Klebsiella pneumoniae [4],38.1%
same,Reduction in beta-lactam MIC (qualitative call),Klebsiella pneumoniae [5],Active
CCN1CCN(C(=O)N[C@@H](C(=O)N[C@@H]2C(=O)N3[C@@H]2SC(C)(C)[C@@H]3C(=O)O)c2ccccc2)C(=O)C1=O [PIPERACILLIN],MIC50,Klebsiella pneumoniae [1],≥ 512 µg/mL
same,MIC90,Klebsiella pneumoniae [1],≥ 512 µg/mL
same,MIC50,Klebsiella pneumoniae [2],64 µg/mL
same,MIC90,Klebsiella pneumoniae [2],128 µg/mL
same,Activity,Klebsiella pneumoniae [3],0%
same,Activity,Klebsiella pneumoniae [4],16.7%
same,Reduction in beta-lactam MIC (qualitative call),Klebsiella pneumoniae [5],Active
